# Assay results reported in paper PMC11237035, “Glutathione determines chronic myeloid leukemia vulnerability to an inhibitor of CMPK and TMPK” (Communications Biology, 2024).
# “And” between values parts separate entries of the source, which are not always exact repeats. Equal values may be shown once.
# How the values were obtained:
# WT-Bcr-Abl-32D cells [1] = experiment: CCK-8 cell viability assay, WT-Bcr-Abl-32D cells; assay type: cell-based, mouse; conditions: WT-Bcr-Abl, single replicates
# untransformed 32D cells [2] = experiment: CCK-8 cell viability assay, untransformed 32D cells; assay type: cell-based, mouse; conditions: for viability (0 = 100): Untransformed, single replicates; for sensitivity compared among WT-, T315I-Bcr-Abl-32D and untransformed 32D progenitor cells: viability assays
# Description: After 72 h, viability assays were performed.
# 3 independent experiments. Asterisks denote ***p<0.001 from non-paired two-tailed
# T315I-Bcr-Abl-32D cells [3] = experiment: CCK-8 cell viability assay, T315I-Bcr-Abl-32D cells; assay type: cell-based, mouse; conditions: T315I-Bcr-Abl, single replicates
# hTMPK = biological target: T1, hTMPK (Homo sapiens, UniProt P23919); experiment: biochemical
# T1 sequence (P23919 1-212): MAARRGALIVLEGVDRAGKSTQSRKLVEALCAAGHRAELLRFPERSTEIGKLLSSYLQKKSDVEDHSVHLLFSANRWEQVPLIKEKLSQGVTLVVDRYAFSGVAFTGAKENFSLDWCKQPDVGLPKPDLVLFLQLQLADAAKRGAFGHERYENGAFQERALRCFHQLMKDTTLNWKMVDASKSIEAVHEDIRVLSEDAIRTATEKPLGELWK
# Description: Activity assay was measured using the spectrophotometric method by coupling ADP formation to NADH oxidation catalyzed by pyruvate kinase and lactate dehydrogenase as described previously[20]. Each reaction contained 0.4 μg TMPK or 0.3 μg CMPK was incubated at 25 °C followed by using Tecan Spark 10 microplate reader to detect the change in NADH measurement at 340 nm absorption according to the manufacturer’s instructions.
# untransformed 32D cells [4] = experiment: Western blot of tyrosine phosphorylation, untransformed 32D cells; assay type: cell-based, mouse; conditions: 32D progenitor cells, 2 μM, 4 h, pY99 Western blot
# WT-Bcr-Abl-32D cells [5] = experiment: Western blot of tyrosine phosphorylation and Bcr-Abl downstream signaling, WT-Bcr-Abl-32D cells; assay type: cell-based, mouse
# Excerpt: (§1) Supplementary Figure 1. Bcr-Abl-activated downstream signaling in WT- and
# (§2) The comparison of Bcr-Abl downstream signaling (Akt, mTorC1, and Stat5) in WT- […]
# T315I-Bcr-Abl-32D cells [6] = experiment: Western blot of tyrosine phosphorylation and Bcr-Abl downstream signaling, T315I-Bcr-Abl-32D cells; assay type: cell-based, mouse
# Excerpt: as §1, §2
smiles,measurement,setting,value
"O=c1[nH]cc(F)c(=O)[nH]1 [Compound 5-FU, 5-Fluorouracil]",viability (0 = 100),WT-Bcr-Abl-32D cells [1]; 5-FU 50 nM,107.177 and 94.9972 and 84.194 and 79.9956
same,viability (0 = 100),WT-Bcr-Abl-32D cells [1]; 5-FU 100 nM,65.5177 and 99.8323 and 74.733 and 69.6887
same,viability (0 = 100),WT-Bcr-Abl-32D cells [1]; 5-FU 200 nM,39.9892 and 67.384 and 54.7054 and 48.7266
same,viability (0 = 100),WT-Bcr-Abl-32D cells [1]; 5-FU 400 nM,24.7745 and 56.1347 and 30.6822 and 26.6217
same,viability (0 = 100),untransformed 32D cells [2]; 5-FU 50 nM,73.4167 and 117.13 and 106.182 and 85.6469
same,viability (0 = 100),untransformed 32D cells [2]; 5-FU 100 nM,72.9576 and 93.7766 and 105.148 and 51.3899
same,viability (0 = 100),untransformed 32D cells [2]; 5-FU 200 nM,35.4417 and 92.003 and 84.6699 and 48.1556
same,viability (0 = 100),untransformed 32D cells [2]; 5-FU 400 nM,6.096 and 36.2787 and 21.177 and 24.9913
same,"sensitivity compared among WT-, T315I-Bcr-Abl-32D and untransformed 32D progenitor cells",untransformed 32D cells [2],similar
same,viability at 0.05 µM,"T315I-Bcr-Abl-32D cells [3]; Mus musculus, 5-FU 50 nM, read-out: viability (0 = 100)",84.6%
same,viability at 0.4 µM,"T315I-Bcr-Abl-32D cells [3]; Mus musculus, 5-FU 400 nM, read-out: viability (0 = 100)",15%
same,viability (0 = 100),T315I-Bcr-Abl-32D cells [3]; 5-FU 50 nM,83.5736 and 80.5085 and 76.4058
same,viability (0 = 100),T315I-Bcr-Abl-32D cells [3]; 5-FU 100 nM,62.3323 and 96.9038 and 91.1488 and 80.2051
same,viability (0 = 100),T315I-Bcr-Abl-32D cells [3]; 5-FU 200 nM,35.7891 and 57.1142 and 42.6177 and 58.9854
same,viability (0 = 100),T315I-Bcr-Abl-32D cells [3]; 5-FU 400 nM,14.7128 and 7.825 and 11.0955
CC(C)(C)OC(=O)N1CCN(C(=O)Cn2sc3ccccc3c2=O)CC1 [JMF2977],IC50,hTMPK,0.29 µM
"Nc1ccn([C@@H]2O[C@H](CO)[C@@H](O)[C@@H]2O)c(=O)n1 [ara-C, cytosine arabinoside]",viability (0 = 100),WT-Bcr-Abl-32D cells [1]; AraC 0.25 μM,45.2109 and 73.8346 and 101.332
same,viability (0 = 100),WT-Bcr-Abl-32D cells [1]; AraC 0.5 μM,24.4529 and 41.8769 and 43.1257
same,viability (0 = 100),WT-Bcr-Abl-32D cells [1]; AraC 1 μM,7.238 and 10.5227 and 12.1803
same,viability (0 = 100),WT-Bcr-Abl-32D cells [1]; AraC 2 μM,1.535 and 1.964 and 2.059
same,viability (0 = 100),untransformed 32D cells [2]; AraC 0.25 μM,80.5922 and 25.4877 and 20.7295
same,viability (0 = 100),untransformed 32D cells [2]; AraC 0.5 μM,32.0177 and 10.1455 and 8.811
same,viability (0 = 100),untransformed 32D cells [2]; AraC 1 μM,12.3749 and 4.297 and 2.7153
same,viability (0 = 100),untransformed 32D cells [2]; AraC 2 μM,4.929 and -0.8077 and -0.4748
same,"sensitivity compared among WT-, T315I-Bcr-Abl-32D and untransformed 32D progenitor cells",untransformed 32D cells [2],similar
same,viability (0 = 100),T315I-Bcr-Abl-32D cells [3]; AraC 0.25 μM,91.0147 and 59.6875 and 56.2982
same,viability (0 = 100),T315I-Bcr-Abl-32D cells [3]; AraC 0.5 μM,23.443 and 24.5051 and 17.9316
same,viability (0 = 100),T315I-Bcr-Abl-32D cells [3]; AraC 1 μM,4.479 and 5.149 and 3.231
same,viability (0 = 100),T315I-Bcr-Abl-32D cells [3]; AraC 2 μM,0.8258 and 1.3128 and 0.8788
Cc1ccc(C(=O)Nc2ccc(CN3CCN(C)CC3)c(C(F)(F)F)c2)cc1C#Cc1cnc2cccnn12 [ponatinib],basal level of tyrosine phosphorylation,untransformed 32D cells [4],also reduced
same,"Bcr-Abl downstream signals (pAkt-S473, pS6K-T389, pStat5-Y694)",WT-Bcr-Abl-32D cells [5],abolished these signals
same,level of overall tyrosine phosphorylation,WT-Bcr-Abl-32D cells [5],reduced
same,"Bcr-Abl downstream signals (pAkt-S473, pS6K-T389, pStat5-Y694)",T315I-Bcr-Abl-32D cells [6],abolished these signals
same,level of overall tyrosine phosphorylation,T315I-Bcr-Abl-32D cells [6],reduced
